Where no end group is shown, it is not given here. [ ]: non-standard residue; d: D form. Nva = CCC[C@H](N)C(=O)O
Legend:
[1] = test system: D2.mdx mice; experiment: Hippocampal western blotting; type: in vivo, mouse; settings: hippocampus
Description: Male D2.mdx mice originated from a colony maintained at York University (Toronto, Canada) and sourced from Jackson Laboratories (Stock Number 013141, Bar Harbor, United States). Mice were treated daily from days 7 to 28 of age with ALY688 at 15 mg/kg b.w. (D2.mdx-ALY688) or saline control (D2.mdx-VEH). This age was chosen given it captures an early stage of disease progression in cardiac and skeletal muscle. Mice were sacrificed 20-24 hr after the last dose. Breeding of wildtype mice was unsuccessful. Instead, three-week-old wildtype DBA/2J WT mice (D2A) were obtained from Jackson Laboratories (Stock number 000671, Bar Harbor, United States) and allowed to acclimatize for one week before sacrifice. Mice were housed in standard 12:12-hr light:dark cycles and were allowed access to standard rodent chow and water ad libitum. 4 days prior to sacrifice, all groups underwent novel object recognition acclimatization and testing as described below. Mice were anesthetized under 5% isoflurane vaporized in medical air (21% oxygen) at a flow rate of 2 L/min and then maintained at 2-3% prior to euthanasia by exsanguination. Muscles were removed and used for another investigation (under review at the time of this submission). The right and left hippocampus were then quickly dissected from the brain with a portion placed immediately into ice-cold BIOPS, containing (in mM): 50 MES Hydrate, 7.23 K2EGTA, 2.77 CaK2EGTA, 20 imidazole, 0.5 dithiothreitol, 20 taurine, 5.77 ATP, 15 PCr, and 6.56 MgCl2·6H2O (pH 7.1) or flash-frozen in liquid nitrogen and stored at −80° C. for RNA isolation and western blotting. All experiments and procedures were approved by the Animal Care Committee at York University (AUP Approval Number 2016-18) in accordance with the Canadian Council on Animal Care.
Hippocampus tissue (collected from the same mice utilized in high-resolution respirometry experiments) was homogenized in cold lysis buffer containing (in mM; 20 Tris/HCl, 150 NaCl, 1 EDTA, 1 EGTA, 1% Triton X-100, 2.5 Na4O7P2, 1 Na3VO4, pH 7.0) supplemented with protease and phosphatase inhibitors (Sigma) according to the protocol established in Hughes MC et al. “Early myopathy in Duchenne muscular dystrophy is associated with elevated mitochondrial H2O2 emission during impaired oxidative phosphorylation.” Journal of Cachexia, Sarcopenia and Muscle. 2019; 10:643-61. […] For detection of total AMPK, p-AMPK, p-ULK1, p62, and LC3BII/I, proteins were transferred to a 0.2 μm low fluorescence polyvinylidene difluoride membrane using a Bio-Rad Trans Blot Turbo. […] The same washing protocol was repeated and then membranes were detected using infrared imaging (LI-COR CLx; LI-COR, Lincoln, NE, USA) and quantified by densitometry (ImageJ, http://imagej.nih.gov/ij/). […]

[2] = test system: D2.mdx mice; experiment: Chamber-specific cardiac fibrosis, histopathological assessment; type: in vivo, mouse
Description: D2.mdx mice were treated daily subcutaneously beginning at 7 days of age for 3 weeks at 1 μL/g with ALY688 at 15 mg/kg body weight (high dose drug; HD) or with a saline (VEH) control. Mice were compared to age-matched wildtypes (DBA/2J). […] However, ADP-stimulated respiration supported by pyruvate was increased in VEH (36%) and HD (46%) vs wildtype whereas HD had no effect vs VEH.

Substance: [dN]IP[Nva]LY[dS]FA[dS]-NH2 [ALY688]
- degree of AMPK activation (p-AMPK or p-AMPK/AMPK) [1]: not altered
- total AMPK protein [1]: lower
- protein content of total raptor ([1]; increased in D2.mdx vs WT): completely prevented the increases
- protein content of total tau ([1]; increased in D2.mdx vs WT): completely prevented the increases
- left atrial fibrosis ([2]; HD 15 mg/kg s.c. daily for 3 weeks from 7 days of age): completely rescued
- right ventricular (RV) fibrosis ([2]; HD 15 mg/kg s.c. daily for 3 weeks, VEH +385%): completely rescued

Source: patent publication US20240382564A1, “Methods and Compositions for Treating Muscular Dystrophy and Memory Impairment” (Allysta Pharmaceuticals, Inc., priority 2023, published 2024)
